Our source for the T/C values is PubChem BioAssay AID248 (DTP/NCI, 2004).

SMILES strings stand for the structures. Toxic doses and inconclusive results are not listed.

This assay relates to L1210 leukemia ip in BDF1 mice, survival T/C. As to the kind of experiment: NCI In Vivo Anticancer Drug Screen. Data for tumor model L1210 Leukemia (intraperitoneal) in B6D2F1 (BDF1) mice. The settings on record: endpoint: mean survival time, higher = longer survival. A digest of the protocol:
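Mice bearing the transplanted tumor received compound or vehicle. Survival of the treated group was divided by that of the vehicle-treated control group to give the ratio.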

[1] abbreviates: dose: 100.0 mg/kg/injection, schedule: Q01DX009 (ip), vehicle: saline with Tween-80.
The mark [2] stands for this setting: dose: 100.0 mg/kg/injection, schedule: Q04DX003 (ip), vehicle: saline with Tween-80.
Setting [3] is: dose: 200.0 mg/kg/injection, schedule: Q01DX009 (ip), vehicle: saline with Tween-80.
[4] abbreviates: dose: 200.0 mg/kg/injection, schedule: Q04DX003 (ip), vehicle: saline with Tween-80.
The mark [5] stands for this setting: dose: 400.0 mg/kg/injection, schedule: Q04DX003 (ip), vehicle: saline with Tween-80.
[6] abbreviates: dose: 100.0 mg/kg/injection, schedule: Q04DX003 (ip), vehicle: other.
Setting [7] is: dose: 200.0 mg/kg/injection, schedule: Q04DX003 (ip), vehicle: other.
[8] abbreviates: dose: 400.0 mg/kg/injection, schedule: Q04DX003 (ip), vehicle: other.
Setting [9] is: dose: 12.5 mg/kg/injection, schedule: Q01DX009 (ip), vehicle: Klucel (hydroxypropylcellulose) (HPC).
The mark [10] stands for this setting: dose: 25.0 mg/kg/injection, schedule: Q01DX009 (ip), vehicle: Klucel (hydroxypropylcellulose) (HPC).
The mark [11] stands for this setting: dose: 100.0 mg/kg/injection, schedule: Q01DX001 (ip), vehicle: saline.
Where [12] appears, read: dose: 200.0 mg/kg/injection, schedule: Q01DX001 (ip), vehicle: saline.
Setting [13] is: dose: 400.0 mg/kg/injection, schedule: Q01DX001 (ip), vehicle: saline.
Setting [14] is: dose: 50.0 mg/kg/injection, schedule: Q01DX009 (ip), vehicle: saline with Tween-80.

In the case of `Cc1csc(C)n1`, the T/C by setting is: under setting [1], 95 % of control; under setting [2], 103 % of control; under setting [3], 95 % of control; under setting [4], 107 % of control; under setting [5], 107 % of control.

For the compound `CCC(CO)NC(=O)/C=C/c1cccc(Br)c1` (stereo not given), the T/C is 102 % of control under setting [6], 103 % of control under setting [7] and 96 % of control under setting [8].

Turning to `COC(=O)C(=CC(Cl)(Cl)Cl)C(=O)OC`, the T/C reads like this: (dose: 6.2 mg/kg/injection, schedule: Q01DX009 (ip), vehicle: Klucel (hydroxypropylcellulose) (HPC)) 102 % of control; under setting [9], 96 % of control; under setting [10], 96 % of control; (dose: 25.0 mg/kg/injection, schedule: Q04DX003 (ip), vehicle: Klucel (hydroxypropylcellulose) (HPC)) 102 % of control; (dose: 50.0 mg/kg/injection, schedule: Q04DX003 (ip), vehicle: Klucel (hydroxypropylcellulose) (HPC)) 97 % of control; (dose: 100.0 mg/kg/injection, schedule: Q01DX001 (ip), vehicle: Klucel (hydroxypropylcellulose) (HPC)) 101 % of control. Further, the T/C (dose: 100.0 mg/kg/injection, schedule: Q04DX003 (ip), vehicle: Klucel (hydroxypropylcellulose) (HPC)) is 97 % of control; the T/C (dose: 200.0 mg/kg/injection, schedule: Q01DX001 (ip), vehicle: Klucel (hydroxypropylcellulose) (HPC)) is 105 % of control; the T/C (dose: 200.0 mg/kg/injection, schedule: Q04DX003 (ip), vehicle: Klucel (hydroxypropylcellulose) (HPC)) was 102 % of control.

With `O=c1cc(-c2ccccc2)nc2ccccn12`, the T/C is, setting by setting: (dose: 100.0 mg/kg/injection, schedule: Q01DX001 (ip), vehicle: saline with Tween-80) 101 % of control; (dose: 200.0 mg/kg/injection, schedule: Q01DX001 (ip), vehicle: saline with Tween-80) 101 % of control; (dose: 400.0 mg/kg/injection, schedule: Q01DX001 (ip), vehicle: saline with Tween-80) 95 % of control.

As for `CSc1cccc(NC2=NCCO2)c1`, the T/C was 103 % of control (dose: 50.0 mg/kg/injection, schedule: Q04DX002 (ip), vehicle: saline with Tween-80); 98 % of control (dose: 100.0 mg/kg/injection, schedule: Q04DX002 (ip), vehicle: saline with Tween-80); 88 % of control (dose: 200.0 mg/kg/injection, schedule: Q04DX002 (ip), vehicle: saline with Tween-80); 95 % of control (dose: 400.0 mg/kg/injection, schedule: Q04DX002 (ip), vehicle: saline with Tween-80).

`CNC(=O)NO`: the T/C is, setting by setting: (dose: 50.0 mg/kg/injection, schedule: Q01DX Z (ip), vehicle: water) 112 % of control; (dose: 200.0 mg/kg/injection, schedule: Q01DX Z (ip), vehicle: water) 97 % of control; (dose: 400.0 mg/kg/injection, schedule: Q01DX Z (ip), vehicle: water) 115 % of control.

With `OCC1CCCC1`, the T/C runs as follows: (dose: 50.0 mg/kg/injection, schedule: Q01DX001 (ip), vehicle: carboxymethylcellulose (CMC)) 92 % of control; (dose: 100.0 mg/kg/injection, schedule: Q01DX001 (ip), vehicle: carboxymethylcellulose (CMC)) 94 % of control; (dose: 200.0 mg/kg/injection, schedule: Q01DX001 (ip), vehicle: carboxymethylcellulose (CMC)) 92 % of control; (dose: 400.0 mg/kg/injection, schedule: Q01DX001 (ip), vehicle: carboxymethylcellulose (CMC)) 94 % of control.

Turning to `O=NN1CCCCCCC1C(=O)O` (stereo not given), the T/C by setting is: under setting [11], 102 % of control; under setting [12], 98 % of control; under setting [13], 102 % of control.

Regarding `O=C1C=CC(=O)c2cc(Cl)c(Cl)cc21`, the T/C runs as follows: (dose: 3.12 mg/kg/injection, schedule: Q01DX009 (ip), vehicle: saline) 89 % of control; (dose: 6.25 mg/kg/injection, schedule: Q01DX009 (ip), vehicle: saline) 90 % of control; (dose: 6.25 mg/kg/injection, schedule: Q04DX003 (ip), vehicle: saline) 96 % of control; (dose: 12.5 mg/kg/injection, schedule: Q01DX001 (ip), vehicle: saline) 98 % of control; (dose: 12.5 mg/kg/injection, schedule: Q04DX003 (ip), vehicle: saline) 98 % of control; (dose: 25.0 mg/kg/injection, schedule: Q01DX001 (ip), vehicle: saline) 90 % of control.

On to `ClCCCCOCBr`, for which the T/C under setting [14] is 97 % of control, the T/C under setting [1] is 104 % of control and the T/C under setting [3] was 95 % of control.

`Cc1ccc(CN(CC(=O)O)S(C)(=O)=O)cc1`: the T/C reads like this: (dose: 100.0 mg/kg/injection, schedule: Q01DX009 (ip), vehicle: other) 105 % of control; under setting [6], 95 % of control; (dose: 200.0 mg/kg/injection, schedule: Q01DX009 (ip), vehicle: other) 98 % of control; under setting [7], 97 % of control; (dose: 400.0 mg/kg/injection, schedule: Q01DX009 (ip), vehicle: other) 110 % of control; under setting [8], 101 % of control.

With `COc1cc([N+](=O)[O-])ccc1NC(=O)Oc1ccccc1C(N)=O`, the T/C reads like this: under setting [9], 102 % of control; under setting [10], 100 % of control; (dose: 50.0 mg/kg/injection, schedule: Q01DX009 (ip), vehicle: Klucel (hydroxypropylcellulose) (HPC)) 98 % of control.

In the case of `O=NN(CCCl)C(=O)NC(Cc1ccccc1)C(=O)O` (stereo not given), the T/C is, setting by setting: (dose: 12.0 mg/kg/injection, schedule: Q01DX001 (ip), vehicle: gum acacia) 118 % of control; (dose: 28.0 mg/kg/injection, schedule: Q01DX001 (ip), vehicle: gum acacia) 188 % of control; (dose: 42.0 mg/kg/injection, schedule: Q01DX001 (ip), vehicle: gum acacia) 195 % of control; (dose: 63.0 mg/kg/injection, schedule: Q01DX001 (ip), vehicle: gum acacia) 256 % of control; (dose: 112.0 mg/kg/injection, schedule: Q01DX001 (ip), vehicle: gum acacia) 163 % of control; (dose: 168.0 mg/kg/injection, schedule: Q01DX001 (ip), vehicle: gum acacia) 120 % of control.

In the case of `CCCCCCCCCCOP(N)(=O)OCCCCCCCCCC`, the T/C is 98 % of control (dose: 25.0 mg/kg/injection, schedule: Q01DX009 (ip), vehicle: carboxymethylcellulose (CMC)); 104 % of control (dose: 50.0 mg/kg/injection, schedule: Q01DX009 (ip), vehicle: carboxymethylcellulose (CMC)); 89 % of control (dose: 50.0 mg/kg/injection, schedule: Q04DX003 (ip), vehicle: carboxymethylcellulose (CMC)); 93 % of control (dose: 100.0 mg/kg/injection, schedule: Q01DX009 (ip), vehicle: carboxymethylcellulose (CMC)); 94 % of control (dose: 100.0 mg/kg/injection, schedule: Q04DX003 (ip), vehicle: carboxymethylcellulose (CMC)); 104 % of control (dose: 225.0 mg/kg/injection, schedule: Q01DX009 (ip), vehicle: carboxymethylcellulose (CMC)).

For the compound `O=C(Nc1cccnc1)C1=Cc2ccccc2OC1`, the T/C under setting [1] was 95 % of control; the T/C under setting [2] was 103 % of control; the T/C under setting [3] was 94 % of control; the T/C under setting [4] is 98 % of control; the T/C (dose: 400.0 mg/kg/injection, schedule: Q01DX009 (ip), vehicle: saline with Tween-80) is 105 % of control; the T/C under setting [5] was 107 % of control.

As for `O=C(CCN1CC=C(c2ccccc2)CC1)c1ccc(Oc2ccccc2)cc1`, the T/C by setting is: under setting [14], 100 % of control; under setting [1], 96 % of control; under setting [2], 96 % of control; under setting [3], 105 % of control; under setting [4], 94 % of control.

With `O=S1(=O)CC2(N3CCCC3)CCCCC21` (stereo not given), the T/C reads like this: (dose: 75.0 mg/kg/injection, schedule: Q01DX001 (ip), vehicle: saline) 98 % of control; (dose: 150.0 mg/kg/injection, schedule: Q01DX001 (ip), vehicle: saline) 100 % of control; (dose: 300.0 mg/kg/injection, schedule: Q01DX001 (ip), vehicle: saline) 100 % of control.

On to `NC1CCC(O)CC1` (stereo not given), for which the T/C was 110 % of control under setting [11], 97 % of control under setting [12] and 97 % of control under setting [13].

For `O=C1NC(=O)C(c2cccc(F)c2)N1` (stereo not given), the T/C is 97 % of control (dose: 50.0 mg/kg/injection, schedule: Q01DX001 (ip), vehicle: saline); 94 % of control under setting [11]; 94 % of control under setting [12]; 111 % of control under setting [13].
